Reference: PubChem BioAssay (NCI)
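GI50 marks 50% less growth. At the TGI there is no net growth.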

Experiments:
Test in all cases: NCI anticancer screen, dose series, 384-well format
[1] = system: SN12C renal
[2] = system: SK-MEL-2 melanoma
[3] = system: CCRF-CEM leukemia
[4] = system: A498 renal
[5] = system: KM12 colon
[6] = system: PC-3 prostate
[7] = system: SK-MEL-5 melanoma
[8] = system: UO-31 renal
[9] = system: SF-539 CNS
[10] = system: NCI-H322M lung
[11] = system: MDA-MB-468 breast
[12] = system: OVCAR-3 ovarian
[13] = system: NCI-H460 NSCLC
[14] = system: MALME-3M melanoma
[15] = system: HCC-2998 colon
[16] = system: A549 NSCLC
[17] = system: MCF7 breast
[18] = system: HCT-15 colon
[19] = system: SR leukemia
[20] = system: U251 glioblastoma
[21] = system: SF-268 CNS
[22] = system: OVCAR-4 ovarian
[23] = system: HT29 colon
[24] = system: DU-145 prostate
[25] = system: HCT-116 colon
[26] = system: TK-10 renal
[27] = system: COLO 205 colon
[28] = system: MDA-MB-435 melanoma
[29] = system: LOX IMVI melanoma
[30] = system: SF-295 CNS
[31] = system: OVCAR-5 ovarian
[32] = system: M14 melanoma
[33] = system: UACC-257 melanoma
[34] = system: ACHN renal
[35] = system: NCI-H23 lung
[36] = system: SK-MEL-28 melanoma
[37] = system: MDA-MB-231 breast
[38] = system: NCI-H522 lung
[39] = system: NCI/ADR-RES ovarian
[40] = system: T-47D breast
[41] = system: HOP-92 NSCLC
[42] = system: SK-OV-3 ovarian
[43] = system: HOP-62 NSCLC
[44] = system: MOLT-4 leukemia
[45] = system: OVCAR-8 ovarian
[46] = system: BT-549 breast
[47] = system: IGROV1 ovarian
[48] = system: UACC-62 melanoma
[49] = system: RXF 393 renal
[50] = system: K-562 leukemia
[51] = system: RPMI-8226 leukemia
[52] = system: HL-60(TB) leukemia
[53] = system: SW-620 colon
[54] = system: SNB-19 CNS
[55] = system: NCI-H226 lung
[56] = system: CAKI-1 renal
[57] = system: 786-0 renal

`CC1(C)CCC2(CC1)N[C@@H](C(=O)N[C@@H]1CC[C@@H](C(N)=O)OC1)[C@H](c1ccnc(Cl)c1F)[C@]21C(=O)Nc2cc(Cl)ccc21` gave a GI50 [1] of 2670 nM, a TGI [1] of 7980 nM and a GI50 [2] of 1880 nM. For the same compound, the TGI [2] was 3320 nM, the GI50 [3] was 1920 nM and the TGI [3] was 3430 nM. The GI50 [4] was 24.4 nM, the TGI [4] was 971 nM and the GI50 [5] was 1980 nM. It also gave a TGI [5] of 3820 nM, a GI50 [6] of 1840 nM and a TGI [6] of 3330 nM. The GI50 [7] was 668 nM, the TGI [7] was 2070 nM and the GI50 [8] was 78.5 nM. The TGI [8] was 335 nM, the GI50 [9] was 1660 nM and the TGI [9] was 3120 nM. For the same compound, the GI50 [10] was 2300 nM, the TGI [10] was 5990 nM and the GI50 [11] was 1930 nM. For the same compound, the TGI [11] was 3710 nM, the GI50 [12] was 1660 nM and the TGI [12] was 3220 nM. It also gave a GI50 [13] of 31.2 nM, a TGI [13] of 1130 nM and a GI50 [14] of 77.7 nM. The TGI [14] was 1040 nM, the GI50 [15] was 1340 nM and the TGI [15] was 2700 nM. The GI50 [16] was 74.6 nM, the TGI [16] was 1300 nM and the GI50 [17] was 31.2 nM. It also gave a TGI [17] of 741 nM, a GI50 [18] of 1910 nM and a TGI [18] of 3690 nM. It also gave a GI50 [19] of less than 10 nM, a GI50 [20] of 2080 nM and a TGI [20] of 4450 nM. For the same compound, the GI50 [21] was 2120 nM, the TGI [21] was 4560 nM and the GI50 [22] was 1910 nM. The TGI [22] was 5550 nM, the GI50 [23] was 1730 nM and the TGI [23] was 3240 nM. For the same compound, the GI50 [24] was 2660 nM, the TGI [24] was 6740 nM and the GI50 [25] was 35.2 nM. The TGI [25] was 1390 nM, the GI50 [26] was 2500 nM and the TGI [26] was 7330 nM. It also gave a GI50 [27] of 1910 nM, a TGI [27] of 3420 nM and a GI50 [28] of 1810 nM. For the same compound, the TGI [28] was 3440 nM, the GI50 [29] was 345 nM and the TGI [29] was 1880 nM. For the same compound, the GI50 [30] was 1740 nM, the TGI [30] was 3290 nM and the GI50 [31] was 2280 nM. The TGI [31] was 5340 nM, the GI50 [32] was 47.3 nM and the TGI [32] was 2030 nM. For the same compound, the GI50 [33] was 94.6 nM, the TGI [33] was 490 nM and the GI50 [34] was 28.5 nM. For the same compound, the TGI [34] was 650 nM, the GI50 [35] was 2040 nM and the TGI [35] was 5350 nM. The GI50 [36] was 1710 nM, the TGI [36] was 3150 nM and the GI50 [37] was 1820 nM. It also gave a TGI [37] of 3400 nM, a GI50 [38] of 1580 nM and a TGI [38] of 3020 nM. The GI50 [39] was 14000 nM, the TGI [39] was 27200 nM and the GI50 [40] was 1630 nM. It also gave a TGI [40] of 4100 nM, a GI50 [41] of 1710 nM and a TGI [41] of 3530 nM. The GI50 [42] was 1800 nM, the TGI [42] was 3670 nM and the GI50 [43] was 1850 nM. For the same compound, the TGI [43] was 3780 nM, the GI50 [44] was less than 10 nM and the TGI [44] was 11.9 nM. It also gave a GI50 [45] of 2400 nM, a TGI [45] of 5610 nM and a GI50 [46] of 1740 nM. It also gave a TGI [46] of 3780 nM, a GI50 [47] of 224 nM and a TGI [47] of 2440 nM. For the same compound, the GI50 [48] was less than 10 nM, the TGI [48] was 1070 nM and the GI50 [49] was 1420 nM. The TGI [49] was 2840 nM, the GI50 [50] was 1640 nM and the TGI [50] was 3030 nM. The GI50 [51] was 1660 nM, the TGI [51] was 3040 nM and the GI50 [52] was 2110 nM. The TGI [52] was 3550 nM, the GI50 [53] was 3320 nM and the TGI [53] was 11100 nM. For the same compound, the GI50 [54] was 2350 nM, the TGI [54] was 5150 nM and the GI50 [55] was 11.8 nM. It also gave a TGI [55] of 65.9 nM, a GI50 [56] of less than 10 nM and a TGI [56] of 347 nM. For the same compound, the GI50 [57] was 2020 nM and the TGI [57] was 4300 nM.
